6 compounds from article PMC9616902, “Chemical space docking enables large-scale structure-based virtual screening to discover ROCK1 kinase inhibitors” (Nature Communications, 2022) can be followed below.

Like-named read-outs stand apart in the source and are kept apart here.

As usually defined, the Ki is a measure of affinity in units of concentration, obtained from inhibition or displacement. The low end stands for tighter binding, the high end for weaker binding.

The assay addresses T1, Human ROCK1 protein (amino acids 1–477) (Homo sapiens, UniProt Q13464).
T1 construct: purchased Carna Biosciences 01-109
Description: ROCK1 HTRF KinEASE-STK S2 biochemical activity assay. Conditions: for S0 / Sinf / nHill: curve fit parameter; for Ki: average +/- standard deviation of three measurements, 3 μM ATP. On the procedure:
Human ROCK1 protein (amino acids 1–477 from accession number NP_05397.1) was purchased from Carna Biosciences (Cat# 01-109). This sequence contains the catalytic domain of the protein, and the biochemical activity was measured by the HTRF KinEASE-STK S2 Kit (Cisbio, Cat# 62ST2PEB) according to the manufacturer’s protocol. To determine the IC50, compounds were first dispensed by the Echo Liquid Handler (Labcyte) into white 384-well plates (PerkinElmer, Cat# 6008289). A total of 3 μL of 2x ROCK1 enzyme solution was added to the compounds, followed by a 10 min incubation at room temperature. Then, 2x ATP and STK S2 peptide solution were added to initiate the one-hour enzyme reaction at room temperature. The final condition of the reaction was 1.5 nM Rock1, 3 μM ATP, 0.5 μM STK S2 peptide in 50 mM HEPES pH7.2, 10 mM MgCl2, 0.1% BGG, 0.005% Brij-35, 1 mM DTT. The reaction was quenched by adding 6 μL of the detection mixture that contained Streptavidin XL665 and STK Antibody-Cryptate (Cisbio) and incubated for 1 hour at room temperature. The HTRF (665 nm/620 nm) signal was read on the PHERAstar reader (BMG Labtech). All measurements were done in triplicate.
On the technique in general: Time-resolved FRET reads energy transfer from a long-lived donor to a nearby acceptor.

[1] abbreviates: 2021-01-17 ROCK1 HTRF (n=1) 665/620, no unit printed (values equal the uM IC50 of the 7th table x 1e-6), read-out: qAC50.
Setting [2] is: 2021-01-17 ROCK1 HTRF (n=1) 665/620 Activity [%].
Where [3] appears, read: 2021-01-18 ROCK1 (n=3) 665/620, no unit printed (values equal the uM IC50 of the 7th table x 1e-6), read-out: qAC50.
[4] abbreviates: 2021-01-18 ROCK1 (n=3) 665/620 Activity [%].
Setting [5] is: 2021-01-18 ROCK1 HTRF (n=2) 665/620, no unit printed (values equal the uM IC50 of the 7th table x 1e-6), read-out: qAC50.
Setting [6] is: 2021-01-18 ROCK1 HTRF (n=2) 665/620 Activity [%].
Setting [7] is: Supplementary Figure 4 source data, unit inferred, read-out: hit IC50.

T1 sequence (Q13464 1-477): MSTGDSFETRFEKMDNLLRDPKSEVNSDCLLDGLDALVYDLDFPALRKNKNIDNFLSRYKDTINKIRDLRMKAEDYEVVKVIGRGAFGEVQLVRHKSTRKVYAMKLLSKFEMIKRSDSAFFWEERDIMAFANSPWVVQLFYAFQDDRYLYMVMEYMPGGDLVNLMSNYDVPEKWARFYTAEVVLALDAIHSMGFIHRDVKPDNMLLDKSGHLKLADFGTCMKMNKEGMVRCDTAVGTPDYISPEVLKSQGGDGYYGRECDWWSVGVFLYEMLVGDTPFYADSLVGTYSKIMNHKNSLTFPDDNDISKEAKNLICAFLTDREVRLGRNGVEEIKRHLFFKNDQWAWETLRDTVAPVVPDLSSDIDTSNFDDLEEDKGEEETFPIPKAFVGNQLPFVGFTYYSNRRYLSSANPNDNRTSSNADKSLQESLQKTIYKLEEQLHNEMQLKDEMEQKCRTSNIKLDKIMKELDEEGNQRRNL

Regarding `CC(NC(=O)c1ccc(-c2cn[nH]c2)cc1)C1CC1c1ccccc1` (mixture of isomers) [Compound 6], the Ki is 87 ± 28 nM. The IC50 under setting [1] turned out to be 0.248 µM. Under setting [2], the S0 is recorded as 0.4458% and the Sinf was -96.8224%. For the same compound, the nHill (2021-01-17 ROCK1 HTRF (n=1)) turned out to be 1.0903. Further, the IC50 under setting [3] is 0.14 µM. Moreover, under setting [4], the S0 was -2.655% and the Sinf is given as -93.6754%. Besides, the nHill (2021-01-18 ROCK1 (n=3)) turned out to be 1.532. Also, the IC50 under setting [5] amounted to 0.157 µM. Besides, under setting [6], the S0 was determined as 3.31% and the Sinf is -94.0095%. Moreover, for the setting “2021-01-18 ROCK1 HTRF (n=2)”, the nHill is reported as 1.2951. The IC50 under setting [7] turned out to be 0.182 µM.
Take `CC(Cc1ccc(F)cc1F)NC(=O)c1ccc(-c2cn[nH]c2)cc1` (racemic) [Compound 3]: the affinity corresponds to a Ki of 76 ± 26 nM. In addition, the IC50 under setting [1] stood at 0.22 µM. Under setting [2], the S0 worked out at 1.865% and the Sinf is -99.1673%. In addition, the nHill (2021-01-17 ROCK1 HTRF (n=1)) was determined as 1.058. Under setting [3], the IC50 stood at 0.121 µM. For the same compound, under setting [4], the S0 is recorded as -2.06% and the Sinf is -95.7048%. Also, under “2021-01-18 ROCK1 (n=3)”, the nHill is reported as 1.245. Moreover, the IC50 under setting [5] was determined as 0.136 µM. For the same compound, under setting [6], the S0 is given as -2.159% and the Sinf was -97.6218%. The nHill (2021-01-18 ROCK1 HTRF (n=2)) is listed as 1.01. In addition, the IC50 under setting [7] was 0.159 µM.
In turn, `COCc1cccc(CC(=O)Nc2ccc(-c3cn[nH]c3)cc2)c1` [Compound 1] returned a Ki of 38 ± 1 nM. Further, the IC50 under setting [1] is 0.0793 µM. Under setting [2], the S0 is recorded as -0.5714% and the Sinf is listed as -100.2%. The compound further yielded a nHill (2021-01-17 ROCK1 HTRF (n=1)) of 1.046. In addition, the IC50 under setting [3] was found to be 0.0806 µM. Under setting [4], the S0 is -1.802% and the Sinf is -99.1388%. The same compound registered a nHill (2021-01-18 ROCK1 (n=3)) of 1.109. In addition, the IC50 under setting [5] amounted to 0.0814 µM. Also, under setting [6], the S0 is listed as -5.692% and the Sinf is given as -99.1049%. Besides, the nHill (2021-01-18 ROCK1 HTRF (n=2)) was 1.139. Moreover, the IC50 under setting [7] turned out to be 0.08 µM.
The compound `CC(CNC(=O)c1ccc(-c2cn[nH]c2)cc1)N1CCc2ccccc21` (stereo not drawn) [Compound 2] returned a Ki of 49 ± 2 nM. Under setting [1], the IC50 was 0.108 µM. Also, under setting [2], the S0 is recorded as -2.075% and the Sinf is listed as -98.9577%. For the same compound, the nHill (2021-01-17 ROCK1 HTRF (n=1)) came to 1.042. For the same compound, the IC50 under setting [3] is 0.101 µM. Further, under setting [4], the S0 amounted to 1.158% and the Sinf is -99.9466%. Also, the nHill (2021-01-18 ROCK1 (n=3)) was determined as 0.9439. Under setting [5], the IC50 was 0.1 µM. Under setting [6], the S0 is -0.7898% and the Sinf is -98.8967%. Also, where the note is “2021-01-18 ROCK1 HTRF (n=2)”, the nHill amounted to 0.9788. The IC50 under setting [7] came to 0.103 µM.
Compound `O=C(NCC1(Cc2ccccc2)CC1)c1ccc(-c2cn[nH]c2)cc1` [Compound 4] showed an inhibitory constant (Ki) of 79 ± 13 nM. Besides, the IC50 under setting [1] came out at 0.197 µM. Further, under setting [2], the S0 was -5.337% and the Sinf is listed as -98.9033%. This compound yielded a nHill (2021-01-17 ROCK1 HTRF (n=1)) of 1.05. Also, under setting [3], the IC50 was determined as 0.147 µM. In addition, under setting [4], the S0 is -5.138% and the Sinf was -96.0861%. The nHill (2021-01-18 ROCK1 (n=3)) is reported as 1.483. Also, under setting [5], the IC50 turned out to be 0.15 µM. Under setting [6], the S0 is listed as -6.676% and the Sinf was -95.9487%. Moreover, the nHill (2021-01-18 ROCK1 HTRF (n=2)) came to 1.644. For the same compound, the IC50 under setting [7] was found to be 0.165 µM.
`CSc1cccc(F)c1CNC(=O)c1ccc(-c2cn[nH]c2)cc1` [Compound 5]: the affinity, expressed as Ki, was 82 ± 1 nM. Moreover, the IC50 under setting [1] stood at 0.173 µM. Besides, under setting [2], the S0 is 3.131% and the Sinf is on record as -99.2397%. Where the note is “2021-01-17 ROCK1 HTRF (n=1)”, the nHill was found to be 1.067. Further, under setting [3], the IC50 turned out to be 0.171 µM. For the same compound, under setting [4], the S0 is given as -0.4047% and the Sinf is -100.142%. Also, where the note is “2021-01-18 ROCK1 (n=3)”, the nHill worked out at 0.9507. Also, the IC50 under setting [5] is 0.17 µM. Under setting [6], the S0 was determined as 3.5105% and the Sinf is listed as -98.3773%. The nHill (2021-01-18 ROCK1 HTRF (n=2)) is 1.136. In addition, the IC50 under setting [7] came to 0.171 µM.
